Tests used:
MSC = assay: RT-qPCR relative gene expression in untreated or preconditioned MSC; format: cell-based, mouse; conditions: for hgf transcripts / vegf-α transcripts / pdgf transcripts: then H2O2 4 h, vs untreated MSC/H2O2; for bcl2 gene expression level: then H2O2, vs H2O2-treated MSC
Experimental: FIG. 8: (A) 48 hours after the seeding step in complete medium, MSC were subjected to H2O2-induced oxidative stress during 4 hours in minimal medium with serum deprivation. Pharmacological preconditioning of MSC using PPARβ/δ agonist or antagonist was performed 24 hours before oxidative stress exposure. At the end of the protocol, relative gene expression was analyzed measuring transcript amounts by RT-qPCR. mRNA expression levels in untreated or preconditioned MSC exposed to an oxidative stress were assessed by RT-qPCR for (B) vegf: data (mean±SEM) were compared using ANOVA and the Tukey's post hoc for multiple comparisons (normality test passed). […] P values were ns versus H2O2, n=7 for control n=8, GW0742 0.1 μM n=7, GW0742 1 μM n=9, GSK0660 0.1 μM n=6 and GSK0660 1 μM n=9; and (D) for pdgf: data (mean±SEM) were compared using ANOVA and the Tukey's post hoc for multiple comparisons (normality test passed). […] For statistical analysis comparisons were made to the untreated MSC/H2O2 group.
MSCs were pre-incubated for 24 hours with either PPARβ/δ antagonists GSK3787 (0.1 and 1 μM), PPARβ/δ inverse agonist GSK0660 (0.1 and 1 μM) or PPARβ/δ agonist GW0742 (0.1, 1 and 5 μM) before to be washed with PBS and used in co-cultures experiments or injected in the myocardium. When indicated, MSCs were labeled with the fluorescent cell-tracer CM-Dil (Molecular Probes). MSC were collected and suspended in 5 mL PBS containing CM-Dil (10^7 cells/10 μg) prior to be incubated at 37° C. for 5 minutes followed by 15 minutes at 4° C., in the dark. Labeled MSCs were washed 2 times in PBS, resuspended in PBS and maintained at 4° C. prior to be injected in the myocardium.
Isolation of total RNA for each sample was performed using the RNeasy Mini Kit (Qiagen, Courtaboeuf). The quantity and quality of the RNA extracted were defined by using a NanoDrop ND-1000 spectrophotometer (NanoDrop ND, Thermo Fisher Scientific). Then, using the SensiFAST cDNA synthesis kit (Bioline), cDNA was synthesized by reverse transcribing 500 ng RNA into cDNA. Using the SensiFAST™ SYBR (Bioline) and a LightCycler® 480 Detection system Quantitative following manufacturer's recommendations, PCR were performed. Primers specific for angpl4, pdk4, bcl2, hgf, pdgf, nrf2 were designed using the Primer3 software. Data were normalized to the housekeeping gene ribosomal protein S9 (RPS9) and the values were expressed as relative mRNA level of specific gene expression as calculated using the 2^−ΔCt method.

H9c2 cardiomyocytes = assay: Transwell co-culture of MSC with H9c2 exposed to H2O2, specific DNA fragmentation in H9c2; format: cell-based, rattus norvegicus; conditions: vs naive MSC
Experimental: FIG. 7: Increased anti-apoptotic effects of PPARβ/δ-primed MSC on cardiomyocytes. (A) After 24 hours of MSC pharmacological preconditioning using PPARβ/δ agonist, cells were co-cultured using transwells (upper chamber) with H9c2 (lower chamber). Both cultures were exposed to 4 hours of 350 μM of H2O2 in minimal medium (serum deprivation). At the end of the protocol, specific DNA fragmentation was quantified in H9c2 cells and values were compared with those obtained for co-cultures with naive MSC or MSC pre-treated with PPARβ/δ antagonists (GSK0660 or GSK03787) and exposed to 350 H2O2μM (B, C, D) Scatter dot plot and bars were presented for specific DNA fragmentation quantified in H9c2 at the end of the protocols. Data (mean±SD for each group of treatment) were normalized by values obtained with naive MSC/H2O2 and compared using Kruskal-Wallis (Dunn's post hoc test). (B): data were obtained using the condition 1 protocol. (C): the condition 2 protocol P was followed and p value was noted **** for p<0.0001 (MSC, n=16 independent cultures vs MSC/H2O2, n=18). For the data obtained with condition 3 protocol (D), p value was noted * for p=0.0436 (MSC+1 μM GSK0660/H2O2, n=6 vs MSC/H2O2, n=10).
H9c2, rattus norvegicus cardiomyocytes, were cultured in Dulbecco's modified Eagle's medium (DMEM), supplemented with 10% fetal bovine serum (FBS), 100 Units/mL penicillin, and 100 μg/mL streptomycin. To induce apoptosis, H9c2 were cultured in a minimal medium (without FBS) containing 350 μM of H2O2 during 4 hours. In order to evaluate the effect of MSCs on cardiomyocytes, a co-culture assay was designed using the transwell system to avoid cell-cell contact. 15,000 cardiomyocytes (lower part) were plated per well of a 12-well dish with or 15,000 MSC (upper part) in presence of 350 OA of H2O2. Two different protocols of co-culture were performed. In protocol 1, H9c2 and co-cultured MSC were exposed to H2O2(with serum deprivation). In protocol 2, H9c2 were exposed to H2O2 in minimal medium during 4 hours and after a wash, cells were co-cultured in complete medium with MSC. In protocol 3, H9c2 were cultured in presence of H2O2 during 4 hours in regular medium deprived in serum, which was continued for an extra 1 hour. Then the co-culture of H9c2 with MSC was performed in complete medium for 1 hour. At the end of all protocols, H9c2 were recovered for apoptosis and RT-qPCR analysis.
DNA fragmentation was quantified in vitro on cell lysates with an enzyme-linked immunosorbent assay kit (Cell Death ELISA; Roche Diagnostics) designed to measure of histone-complexed DNA fragments (mono- and oligonucleosomes) out of the cytoplasm of cells after the induction of apoptosis.
To determine the role of PPARβ/δ on MSC-induced protective effect on cardiomyocytes we designed and developed three protocols in order to mimic the stress received by MSC when transplanted into infarcted tissues. The first protocol consisted in co-culturing naive or primed MSC with H9c2 exposed to 350 μM of H2O2 for 4 hours using transwell. The second protocol consisted in exposing […] μM of H2O2 for 4 hours before to co-culture them with naive or primed MSC in a complete medium. The third protocol consisted in exposing H9c2 to 350 μM of H2O2 for 4 hours followed by serum deprivation for 1 hour before to co-culture them with naive or primed MSC in a complete medium (FIG. 7A).

[1] = MSC pretreated 24 h with 0.1 μM
[2] = pretreatment of cultured MSC (data not shown)
[3] = protocol 1: MSC pretreated 24 h with 1 μM, co-cultured with H9c2 under 350 μM H2O2 4 h
[4] = protocol 2: H9c2 exposed to 350 μM H2O2 4 h, then co-culture in complete medium with MSC pretreated with 1 μM
[5] = protocol 3: H9c2 350 μM H2O2 4 h, serum deprivation 1 h, then co-culture in complete medium with MSC pretreated with 1 μM

SMILES | hgf transcripts (MSC; [1]) | vegf-α transcripts (MSC; [1]) | bcl2 gene expression level (MSC; [1]) | hgf transcripts (MSC; MSC pretreated 24 h with 1 μM) | pdgf transcripts (MSC; MSC pretreated 24 h with 1 μM) | vegf-α transcripts (MSC; MSC pretreated 24 h with 1 μM) | angpl4 target gene expression level (MSC; [2]) | pdk4 target gene expression level (MSC; [2]) | Specific DNA fragmentation in H9c2 (anti-apoptotic effect of MSC) (H9c2 cardiomyocytes; protocol 1: MSC pretreated 24 h with 0.1 μM, co-cultured with H9c2 under 350 μM H2O2 4 h) | Specific DNA fragmentation in H9c2 (anti-apoptotic effect of MSC) (H9c2 cardiomyocytes; [3]) | Specific DNA fragmentation in H9c2 (anti-apoptotic effect of MSC) (H9c2 cardiomyocytes; [4]) | Specific DNA fragmentation in H9c2 (anti-apoptotic effect of MSC) (H9c2 cardiomyocytes; [5]) | pdgf transcripts (MSC; [1]) | bcl2 gene expression level (MSC; MSC pretreated 24 h with 1 μM)
Cc1cc(SCc2sc(-c3ccc(C(F)(F)F)c(F)c3)nc2C)ccc1OCC(=O)O [GW0742] | did not modify | did not modify | significant increase in bcl2 gene expression level | did not modify | significantly increased the expression of pdgf | did not modify | increased expression levels | increased expression levels | exhibited a higher anti-apoptotic effect | exhibited a higher anti-apoptotic effect | induced a significant protective effect | induced a significant protective effect | – | –
COC(=O)c1sccc1S(=O)(=O)Nc1ccc(Nc2ccccc2)cc1OC [GSK0660] | A similar tendency was observed | significantly decreased | – | A similar tendency was observed | A similar tendency was observed | significantly decreased | – | – | – | lose their capacity to protect cardiomyocytes from apoptosis | did not change MSC protective properties | lose their capacity to protect cardiomyocytes from apoptosis | A similar tendency was observed | significantly reduced bcl2 gene expression level
